Data from US20240059703A1 (AMGEN INC., priority 2021, published 2024).

What was measured:
[1] = tested on: phosphorylation of extracellular signal-regulated kinase (ERK); settings: preclinical studies; cited from earlier work
[2] = target: T1, KRAS G12C (Homo sapiens (Human), UniProt P01116, C118A/G12C); assay: 20 h coupled exchange assay; type: biochemical; settings: value marked ** in the Avg 2 h column; footnote not given, taken as 20 h pre-incubation
Description: (§1) The term “2 h coupled exchange assay” or “20 h coupled exchange assay” as used herein refers to the assay described in the Section entitled “BIOLOGICAL EVALUATION.”

[3] = tested on: MIA PaCa-2 (human pancreatic carcinoma) cells; assay: Cell Viability Assay (CellTiter-Glo), MIA PaCa-2; type: cell-based
Description: Serially-diluted compound or DMSO was added to the cells, and plates were incubated at 37° C., 5% CO2 for 72 h. Cell viability was measured using a CellTiter-Glo® Luminescent Cell Viability Assay kit (Promega) according to the manufacturer's protocol. The luminescence signal of treated samples was normalized to DMSO control, and data were analyzed using a 4-parameter logistic model to calculate IC50 values.

[4] = tested on: A549 (human lung carcinoma) cells; assay: Cell Viability Assay (CellTiter-Glo), A549; type: cell-based
Method in brief: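 MIA PaCa-2 or A549 cells in RPMI 1640 with 10% FBS were seeded at 1.67E+04 cells/mL and incubated overnight. Serially diluted compound was then added for 72 h at 37° C, 5% CO2. Viability read by CellTiter-Glo luminescence, normalized to DMSO, with IC50 from a 4-parameter logistic fit.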

[5] = target: T1, KRAS G12C; assay: 2 h coupled exchange assay; type: biochemical; settings: Avg 2 h Coupled exchange IC50, 2 h compound pre-incubation
Description: as §1

[6] = SOS-mediated nucleotide exchange

T1 sequence (P01116 other isoform, or with tags, fused parts or gaps G12C/C118A): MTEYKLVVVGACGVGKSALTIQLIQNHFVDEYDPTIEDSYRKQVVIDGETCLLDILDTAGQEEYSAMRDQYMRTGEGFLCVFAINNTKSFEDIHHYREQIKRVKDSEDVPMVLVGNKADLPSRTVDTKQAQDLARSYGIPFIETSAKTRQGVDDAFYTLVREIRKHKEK

| Compound | inhibition of phosphorylation of extracellular signal-regulated kinase (ERK) [1] | IC50 [2] [µM] | IC50 ([3]; Homo sapiens, MIA PaCa-2, 72 h) [nM] | IC50 ([4]; Homo sapiens, A549, 72 h) [µM] | IC50 [5] [nM] | IC50 [5, 6] [nM] | IC50 ([3]; 72 h) [nM] | IC50 ([4]; 72 h) [µM] |
| --- | --- | --- | --- | --- | --- | --- | --- | --- |
| C=CC(=O)N1CCN(c2nc(=O)n(-c3c(C)ccnc3C(C)C)c3nc(-c4c(O)cccc4F)c(F)cc23)[C@@H](C)C1 [AMG 510] | inhibited nearly all detectable phosphorylation |  |  |  |  |  |  |  |
| C=CC(=O)N1CC2(CCN(c3nc(-c4c(C)ccc5[nH]ncc45)c4ncn(C)c4n3)C2)C1 [Example 1-20, 1-(6-(9-methyl-6-(5-methyl-1H-indazol-4-yl)-9H-purin-2-yl)-2,6-diazaspiro[3.4]octan-2-yl)-2-propen-1-one] |  | 4.65 | > 5000 | > 5 |  |  |  |  |
| C=CC(=O)N1CC2(CCN(c3cc(-c4c(C)ccc5[nH]ncc45)c4occ(C)c4n3)C2)C1 [Example 3, 1-(6-(3-Methyl-7-(5-methyl-1H-indazol-4-yl)furo[3,2-b]pyridin-5-yl)-2,6-diazaspiro[3.4]octan-2-yl)prop-2-en-1-one] |  | 1.38 |  |  |  |  |  |  |
| C=CC(=O)N1CC2(CCN(c3nc4c(c(-c5cc(N)cc6ccccc56)c3C#N)COC(C)(C)C4)C2)C1 [Example 38-1, 4-(3-amino-1-naphthalenyl)-7,7-dimethyl-2-(2-(2-propenoyl)-2,6-diazaspiro[3.4]octan-6-yl)-7,8-dihydro-5H-pyrano[4,3-b]pyridine-3-carbonitrile] |  |  | 348 | 12.7 | 407 |  |  |  |
| C=CC(=O)N1CC2(CCN(c3nc4c(c(-c5cc(O)ccc5Cl)c3C#N)C[C@H]3C[C@@H]4C3(C)C)C2)C1 (single isomer, unassigned) [Example 2-74] |  |  | 202 | > 5 |  | 21 |  |  |
| C=CC(=O)N1CC2(CCN(c3cc4c(c(-c5cc(O)cc6ccccc56)c3C#N)OCCC4)C2)C1 [Example 2-52, 8-(3-hydroxy-1-naphthalenyl)-6-(2-(2-propenoyl)-2,6-diazaspiro[3.4]octan-6-yl)-3,4-dihydro-2H-chromene-7-carbonitrile] |  |  | 61 | > 5 |  | 26 |  |  |
| C=CC(=O)N1CC2(CCN(c3nc4c(c(-c5cc(O)ccc5Cl)c3C#N)CCC(c3scnc3C)=C4)C2)C1 [Example 23-45, 4-(2-chloro-5-hydroxyphenyl)-7-(4-methyl-1,3-thiazol-5-yl)-2-(2-(2-propenoyl)-2,6-diazaspiro[3.4]octan-6-yl)-5,6-dihydro-3-quinolinecarbonitrile] |  |  | 1070 | > 5 | 33 |  |  |  |
| C=CC(=O)N1CC2(CCN(c3nc4c(c(-c5c(C)ccc6cnn(C)c56)c3C#N)C[C@H]3C[C@@H]4C3(C)C)C2)C1 (single isomer, unassigned) [Example 13-106] |  |  | 831 | > 5 |  | 78 |  |  |
| C=CC(=O)N1CC2(CCN(c3nc4c(c(-c5c(C)ccc6[nH]ncc56)c3C)CCC(C)(C)C4)C2)C1 [Example 2-28, 1-(6-(3,7,7-trimethyl-4-(5-methyl-1H-indazol-4-yl)-5,6,7,8-tetrahydro-2-quinolinyl)-2,6-diazaspiro[3.4]octan-2-yl)-2-propen-1-one] |  |  | 187 | > 5 |  | 67 |  |  |
| C=CC(=O)N1CC2(C1)CN(c1nc3cc(OC)ccc3c(-c3c(C)ccc4[nH]ncc34)c1C#N)CC2(F)F [Example 14-20, 2-(8,8-difluoro-2-(2-propenoyl)-2,6-diazaspiro[3.4]octan-6-yl)-7-methoxy-4-(5-methyl-1H-indazol-4-yl)-3-quinolinecarbonitrile] |  |  | 2550 | > 5 | 31 |  |  |  |
| C=CC(=O)N1CC2(CCN(c3nc4c(c(-c5c(C)cc(F)c6[nH]ncc56)c3C#N)COC(C)(C)C4)C2)C1 [Example 13-147, 4-(7-fluoro-5-methyl-1H-indazol-4-yl)-7,7-dimethyl-2-(2-(2-propenoyl)-2,6-diazaspiro[3.4]octan-6-yl)-7,8-dihydro-5H-pyrano[4,3-b]pyridine-3-carbonitrile] |  |  | 176 | > 5 |  | 98 |  |  |
| C=CC(=O)N1CC2(CCN(c3nc4c(c(-c5cccc6cc(O)ccc56)c3C)CCN(C3COC3)C4)C2)C1 [Example 18-7, 1-(6-(4-(6-hydroxy-1-naphthalenyl)-3-methyl-7-(3-oxetanyl)-5,6,7,8-tetrahydro-1,7-naphthyridin-2-yl)-2,6-diazaspiro[3.4]octan-2-yl)-2-propen-1-one] |  |  | 64 | > 5 | 71 |  |  |  |
| C=CC(=O)N1CC2(CCN(c3nc4c(c(-c5cc(O)ccc5C)c3C)COC(C)(C)C4)C2)C1 (single isomer, unassigned) [Example 14-31, (M)-1-(6-(4-(5-hydroxy-2-methylphenyl)-3,7,7-trimethyl-7,8-dihydro-5H-pyrano[4,3-b]pyridin-2-yl)-2,6-diazaspiro[3.4]octan-2-yl)-2-propen-1-one] |  |  | 105 | > 5 | 106 |  |  |  |
| C=CC(=O)N1CC2(CCN(c3nc4c(c(-c5cc(O)cc(Cl)c5C)c3C)COC(C)(C)C4)C2)C1 (single isomer, unassigned) [Example 12-43, (M)-1-(6-(4-(3-chloro-5-hydroxy-2-methylphenyl)-3,7,7-trimethyl-7,8-dihydro-5H-pyrano[4,3-b]pyridin-2-yl)-2,6-diazaspiro[3.4]octan-2-yl)prop-2-en-1-one] |  |  | 82 | > 5 |  | 26 |  |  |
| C=CC(=O)N1CC2(CCN(c3nc(-c4c(C)ccc5[nH]ncc45)c4ccc(OC)cc4n3)C2)C1 [Example 1-41, 1-(6-(7-methoxy-4-(5-methyl-1H-indazol-4-yl)-2-quinazolinyl)-2,6-diazaspiro[3.4]octan-2-yl)-2-propen-1-one] |  |  | > 5000 | > 5 |  | 882 |  |  |
| C=CC(=O)N1CC2(CCN(c3nc4cc(-c5scnc5C)ccc4c(-c4c(O)cccc4F)c3C#N)C2)C1 (single isomer, unassigned) [Example 19-15, (M)-4-(2-fluoro-6-hydroxyphenyl)-7-(4-methyl-1,3-thiazol-5-yl)-2-(2-(2-propenoyl)-2,6-diazaspiro[3.4]octan-6-yl)-3-quinolinecarbonitrile] |  |  |  |  | 2960 |  | 4560 | 7.6 |
| C=CC(=O)N1CC2(CCN(c3nc4c(c(-c5ccccc5Cl)c3C#N)COC(c3scnc3C)C4)C2)C1 [Example 23-15, (7R)-4-(2-chlorophenyl)-7-(4-methyl-1,3-thiazol-5-yl)-2-(2-(2-propenoyl)-2,6-diazaspiro[3.4]octan-6-yl)-7,8-dihydro-5H-pyrano[4,3-b]pyridine-3-carbonitrile (7S)-4-(2-chlorophenyl)-7-(4-methyl-1,3-thiazol-5-yl)-2-(2-(2-propenoyl)-2,6-diazaspiro[3.4]octan-6-yl)-7,8-dihydro-5H-pyrano[4,3-b]pyridine-3-carbonitrile] |  |  | 972 | > 5 | 196 |  |  |  |
| C=CC(=O)N1CC2(CCN(c3nc4cc(-c5ccnn5C)ccc4c(-c4cc(O)ccc4Cl)c3C)C2)C1 [Example 16-9, 1-(6-(4-(2-chloro-5-hydroxyphenyl)-3-methyl-7-(1-methyl-1H-pyrazol-5-yl)-2-quinolinyl)-2,6-diazaspiro[3.4]octan-2-yl)-2-propen-1-one] |  |  | 1330 | > 5 | 60 |  |  |  |
| C=CC(=O)N1CC2(CCN(c3nc4c(c(-c5ccccc5F)c3C#N)CCN(C3CC3)C4)C2)C1 [Example 21-37, 7-cyclopropyl-4-(2-fluorophenyl)-2-(2-(2-propenoyl)-2,6-diazaspiro[3.4]octan-6-yl)-5,6,7,8-tetrahydro-1,7-naphthyridine-3-carbonitrile] |  |  | 461 | > 5 | 90 |  |  |  |
| C=CC(=O)N1CC2(CCN(c3nc4c(c(-c5ccccc5F)c3C#N)CCN(C3CCCN(C)C3)C4)C2)C1 [Example 21-30, 4-(2-fluorophenyl)-7-((3R)-1-methyl-3-piperidinyl)-2-(2-(2-propenoyl)-2,6-diazaspiro[3.4]octan-6-yl)-5,6,7,8-tetrahydro-1,7-naphthyridine-3-carbonitrile 4-(2-fluorophenyl)-7-((3S)-1-methyl-3-piperidinyl)-2-(2-(2-propenoyl)-2,6-diazaspiro[3.4]octan-6-yl)-5,6,7,8-tetrahydro-1,7-naphthyridine-3-carbonitrile] |  |  | 2090 | 15.4 | 211 |  |  |  |
| C=CC(=O)N1CC2(CCN(c3nc4c(c(-c5ncccc5C)c3C#N)COC(c3scnc3C)C4)C2)C1 [Example 23-14, (7R)-4-(3-methyl-2-pyridinyl)-7-(4-methyl-1,3-thiazol-5-yl)-2-(2-(2-propenoyl)-2,6-diazaspiro[3.4]octan-6-yl)-7,8-dihydro-5H-pyrano[4,3-b]pyridine-3-carbonitrile (7S)-4-(3-methyl-2-pyridinyl)-7-(4-methyl-1,3-thiazol-5-yl)-2-(2-(2-propenoyl)-2,6-diazaspiro[3.4]octan-6-yl)-7,8-dihydro-5H-pyrano[4,3-b]pyridine-3-carbonitrile] |  |  | 1310 | > 25 | 802 |  |  |  |
